Experimental findings from the Bradley open melting point set (2014) are described below.

Broadly, the melting point is the temperature of the solid-liquid transition.

Several values for one entry are separate records, joined by “and”; a condition that tells them apart may be missing. Equal values may be shown once.

`CCCCCCCCCCCC(=O)O` [dodecanoic acid] yielded a melting point of 44 °C. Compound `COc1ccc(C=O)cc1` [4-methoxybenzaldehyde] showed a melting point of 1 °C. Next, `CCOP(=S)(OCC)Oc1nc(Cl)n(C(C)C)n1` [isazophos]: 25 °C. Next, `Cc1cc(Br)cnc1N` [2-amino-5-bromo-3-methylpyridine]: 92 °C; `Clc1cc(N2CCCC2)ncn1` [4-chloro-6-(1-pyrrolidinyl)pyrimidine]: 97 °C; `Cc1cn([C@H]2C[C@H](O)[C@@H](CO)O2)c(=O)[nH]c1=O` [Thymidine]: 188 °C. In the case of `N#CCc1cccc(Br)c1` [m-bromophenylacetonitrile] it was 28 °C; in that of `O=C1OC(=O)C23Cc4ccccc4CC12Cc1cc2c(cc1C3)CC2` (stereo not given), 250 °C. Take `COc1ccc(B(O)O)cn1` [6-methoxypyridine-3-boronic acid]: the melting point is 133 °C. With `CCOC(=O)c1cc(C)n(-c2ccc(C(F)(F)F)cc2)c1C` [OSM-S-32], the melting point is 67.5 °C. `Clc1ccc(-c2ccccc2)cc1` [4-chlorobiphenyl]: the melting point came out at 78 °C.

On to `COC1=C(OC)C(=O)C(C)=CC1=O` [2,3-dimethoxy-5-methyl-1,4-benzoquinone], for which the melting point is 59 °C.

The compound `Clc1ccccc1` [chlorobenzene] had a melting point of -45 °C. Next, `O=C(O)c1ccccc1Cl` [2-Chlorobenzoic acid]: 140 °C; `CCCCc1ccc(/N=N/c2ccc(OC(=O)CC)cc2)cc1` [4-[(E)-(4-butylphenyl)diazenyl]phenyl propanoate]: 86 °C. In the case of `CC1(C)CCCCC1` [1,1-dimethylcyclohexane] it was -33 °C; in that of `O=C(O)CCC(=O)c1ccc(Br)cc1` [3-(4-bromobenzoyl)propionic acid], 147 °C; in that of `CC(C)(C)c1ccc(C2CCC3(CC2)Cc2ccc(C(=O)Nc4ccccc4OCCCC(=O)O)cc2C3)cc1` (stereo not given), 147 °C. Next, `CC(=O)c1ccc(Oc2ccccc2)cc1` [4'-phenoxyacetophenone]: 50 °C; `CCCCCC1CCCCC1` [N-pentylcyclohexane]: -58 °C; `O=S(=O)(Cl)c1cc(Cl)cc(Cl)c1` [3,5-dichlorobenzenesulfonyl chloride]: 32 °C.

As for `CCOc1ccccc1B(O)O` [2-ethoxybenzeneboronic acid], the melting point is 100 °C. Next, `CN(C)C(=O)Nc1ccc(Cl)cc1` [Monuron]: 174 °C. Compound `N=C(N)NCC1COc2ccccc2O1` (stereo not given) [guanoxan] yielded a melting point of 164 °C. In the case of `CC(=O)OCCC(C)C` [isoamyl_acetate] it was -78 °C; in that of `O=C(c1ccccc1)N(O)c1ccccc1` [N-Hydroxy-N-phenylbenzamide], 119 °C. On to `[O-]/[N+](=N\c1ccccc1)c1ccc(/N=N/c2ccccc2)cc1` [(E)-1-phenyl-2-{4-[(Z)-phenyl-NNO-azoxy]phenyl}diazene], for which the melting point amounted to 131 °C. Next, `O=C1c2ccccc2CC1Br` (stereo not given) [2-bromo-1-indanone]: 38 °C. The compound `O=C(O)c1cc([N+](=O)[O-])cc([N+](=O)[O-])c1O` [3,5-dinitrosalicylic acid] showed a melting point of 171 °C. Take `ClC(Cl)(Cl)c1ccccc1` [benzotrichloride]: the melting point was -4 °C. Next, `Fc1ccc(C2(Cn3cncn3)OC2c2ccccc2Cl)cc1` (stereo not given): 125 °C; `Cc1cc(C)cc([N+](=O)[O-])c1` [5-nitro-1,3-dimethylbenzene]: 74 °C. With `Clc1c2ccccc2cc2ccccc12` [9-Chloroanthracene], the melting point worked out at 104 °C.

`COc1cc(N)c(C(C)=O)cc1OC` [2'-amino-4',5'-dimethoxyacetophenone]: the melting point stood at 106 °C. Consider `CNC1=CC2=NC(OC)=CC2=CC1` [2-methoxy-N-methyl-1H-indol-6-amine], for which the melting point came out at 165 °C. In the case of `C#CC(C)(C)C` [3,3-dimethyl-1-butyne] it was -78 °C. In the case of `NCCc1ccc(O)cc1` [tyramine] it was 164 °C; in that of `CC(CC1CC(=O)c2c3c(c4ccccc4c2O1)OC1CC(=O)OC31)O[Si](C)(C)C(C)(C)C` (stereo not given), 132 °C; in that of `COc1cccc(OC)c1OCC(=O)O` [2,6-dimethoxyphenoxyacetic acid], 81 °C. As for `O=C(O)c1ccccc1` [Benzoic Acid], the melting point amounted to 122 °C. Next, `O=C(c1ccccc1)c1cc(C(=O)c2ccccc2)cc(C(=O)c2ccccc2)c1` [1,3,5-tribenzoylbenzene]: 118 °C; `COc1cccc(C#N)c1OC` [2,3-dimethoxybenzonitrile]: 46 °C. In the case of `CC(C)(C)c1ccc(B(O)O)cc1` [4-tert-butylbenzeneboronic acid] it was 194 °C. In the case of `c1ccc(OCC2CO2)cc1` (stereo not given) [glycidyl phenyl ether] it was 4 °C; in that of `Oc1ccc(-n2ccnc2)cc1` [4-(1-imidazolyl)phenol], 206 °C.

The compound `C1=CC=CC=CC=C1` [1,3,5,7-cyclooctatetraene] yielded a melting point of -27 °C. In the case of `Nc1ccc(F)c(Cl)c1` [3-chloro-4-fluoroaniline] it was 46 °C. `CC(=O)Oc1ccccc1O` [catechol_monoacetate_(ortho)] displayed a melting point of 57 °C. Next, `Cc1cc(C)cc(B(O)O)c1` [3,5-dimethylbenzeneboronic acid]: 236 °C; `CCOC(=O)Cn1cnc2ncnc(Cl)c21` [Ethyl (6-chloro-7H-purin-7-yl)acetate]: 108 °C. In the case of `CC(=O)C=C(C)[O][Co]([O]C(C)=CC(C)=O)[O]/C(C)=C\C(C)=O` [Cobalt(3+) tris[(2Z)-4-oxopent-2-en-2-olate]] it was 212 °C. In the case of `NS(=O)(=O)c1cc2c(cc1Cl)NCNS2(=O)=O` [hydrochlorothiazide] it was 269 °C. In the case of `O=C1OC(c2ccccc2)(c2ccccc2)C=C1O` [3-hydroxy-5,5-diphenylfuran-2(5H)-one], the melting point turned out to be 127 °C.

Compound `COC(=O)c1ccc(C)c(C)c1` [methyl 3,4-dimethylbenzoate] had a melting point of 36 °C. Next, `CC(=O)c1ccc2ccccc2c1` [2-Acetylnaphthalene]: 55 °C; `CCCCOC(=O)[C@@H](C)Oc1ccc(Oc2ccc(C(F)(F)F)cn2)cc1`: 5 °C; `COc1ccc(OC)c(S(=O)(=O)Cl)c1` [2,5-dimethoxybenzenesulfonyl chloride]: 114 °C.

For `CC(=O)Oc1ccc(CC#N)cc1` [p-acetoxy_phenylacetonitrile], the melting point amounted to 50 °C.

Consider `O=C(O)c1cc(C(=O)O)cc(C(=O)O)c1` [1,3,5-benzenetricarboxylic acid], for which the melting point amounted to 375 °C. In the case of `C=CC(=O)OCCCC` [N-butyl acrylate] it was -64 °C. As for `COc1cc(O)cc(OC)c1` [3,5-dimethoxyphenol], the melting point was determined as 47 °C. In the case of `CCN(CC)c1ccc(C=NO)cc1` [4-diethylaminobenzaldoxime] it was 96 °C; in that of `CC1=NCCN1` [2-methyl-2-imidazoline], 100 °C. Next, `ClC(Cl)Cl` [chloroform]: -63 °C. Next, `O=[N+]([O-])c1ccc(O)cc1` [4-nitrophenol]: 112 °C and 113 °C; `Cc1cc(O)ccc1Br` [4-Brom-3-methylphenol]: 64 °C; `COc1ccc2c(c1)=NC(c1ccccc1)C=2c1ccccc1` (stereo not given) [6-methoxy-2,3-diphenyl-1H-indole]: 212 °C. With `c1cc2c3c(cccc3c1)CC2` [Acenaphthene], the melting point is 95 °C. Take `COc1ccc(N)c(C)c1` [4-methoxy-2-methylaniline]: the melting point amounted to 14 °C. As for `CC(=O)Nc1cccc2c([N+](=O)[O-])cccc12` [N-(5-nitronaphthalen-1-yl)acetamide], the melting point is 218 °C. The compound `CCCc1c(O)cccc1O` [2-n-propylresorcinol] gave a melting point of 103 °C.

`CCc1ccc(O)cc1` [4-Ethylphenol] registered a melting point of 43.5 °C.

In turn, `Cc1ccc2c(c1)no[n+]2[O-]` [5-methylbenzofuroxan] registered a melting point of 97 °C. In the case of `C#CC1(O)CC[C@H]2[C@@H]3CCc4cc(O)ccc4[C@H]3CC[C@@]21C` (stereo in doubt) [(17beta)-17-Ethynylestra-1(10),2,4-triene-3,17-diol] it was 144 °C; in that of `C=C1C(=O)C23C(OC(C)=O)CC4C(C)(C)CCC(OC(C)=O)C4(C)C2C(OC(C)=O)CC1C3OC(C)=O` (stereo not given) [15-oxokaur-16-ene-1,7,11,14-tetrayl tetraacetate], 237 °C. For `CC(Cc1oc2c(c3c(c4ccccc42)OC2CC(=O)OC32)c(=O)c1[Si](C)(C)C)O[Si](C)(C)C(C)(C)C` (stereo not given), the melting point amounted to 190 °C. In the case of `Cc1ccnc(NS(=O)(=O)c2ccc(N)cc2)n1` [Sulfamerazine] it was 236 °C. For the compound `CSc1[nH]nc(N)c1C#N` [3-amino-5-methylthio-1h-pyrazole-4-carbonitrile], the melting point is 149 °C.

In the case of `C=CCC1(CC(C)C)C(=O)NC(=O)NC1=O` [Butalbital], the melting point was found to be 138 °C. Next, `O=C(O)C1(C(F)(F)F)CCCCC1` [1-(trifluoromethyl)cyclohexanecarboxylic acid]: 70 °C; `CCCCCCCCCCCCC` [N-tridecane]: -5 °C. Next, `O=[N+]([O-])c1c(Cl)cc(Cl)cc1Cl` [1,3,5-Trichloro-2-nitrobenzene]: 72 °C. Next, `COc1cccc2oc(-c3ccccc3)c(O)c(=O)c12` [3-hydroxy-5-methoxyflavone]: 175 °C; `C[C@]12CC[C@H]3[C@@H](CCC4=CC(=O)CC[C@@]43C)[C@@H]1CC[C@@H]2O` [Testosterone]: 155 °C. In turn, `O=[N+]([O-])c1ccc(/N=N/c2c(O)ccc3ccccc23)cc1` [1-(4-nitrophenylazo)-2-naphthol] came in with a melting point of 250 °C.
